From patent US20120329860A1, “Uses of Beta-Nicotinamide Adenine Dinucleotide” (MEDICAL COLLEGE OF GEORGIA INSTITUTE, INC, priority 2010, published 2012)
“Also recorded” adds a separate entry of the source.

What was measured:
[1] = test system: HPAEC monolayers; assay: Transendothelial electrical resistance (TER) by ECIS in HPAEC monolayers; type: cell-based, human
Experimental: Human pulmonary artery endothial cells (HPAEC) and EBM-2 complete medium were purchased from Lonza (Allendale, N.J.). HPAEC were cultured according to the manufacturer's protocol and utilized at early (3-6) passages.
The barrier properties of endothelial cells monolayers were characterized using a highly sensitive electrical cell-substrate impedance sensing (ECIS) instrument to measure transendothelial electrical resistance (TER) as described (Birukova et al., 2004a. Microvasc Res 67(1):64-77; Kolosova et al., 2005, Circ Res 97(2):115-124). The TER data was normalized to the initial voltage.

[2] = test system: LPS-induced ALI in mice; assay: BAL total protein in LPS-induced lung injury; type: in vivo; details: β-NAD (i.v.) simultaneously with LPS (i.t.), 18 hr
Experimental: Female C57BL/6J mice (8-10 weeks old) weighing 20-25 g were purchased from Charles River Laboratory (Wilmington, Mass.). Animals were housed in plastic cages and had access to food and water. The animals were kept at room temperature and exposed to continuous cycles of 12 hr light and darkness.
Mice were anesthetized with ketamine (150 mg/kg) and acetylpromazine (15 mg/kg) intraperitoneally (i.p.) before the exposure of the trachea via neck incision and intubation with 20-guage catheter and the right internal jugular vein was exposed via right chest incision for PBS or b-NAD installation. The mice were randomly divided into groups. […] Simultaneously, mice received either b-NAD (5.4 mg/kg, equivalent to final calculated plasma concentration […] or PBS in the control group intravenously (i.v.) through the internal jugular vein (IJ). The animals were allowed to recover for 18 hr. EBD was given through the IJ 2 hr prior to termination of the experiment. At termination, bronchoalveolar lavage (BAL) was collected. BAL was 1ml of 10% HBSS through the endotracheal catheter immediately on sacrifice with aspiration. BAL was immediately centrifuged and processed. After the BAL, ethylenediaminetetraacetic acid (EDTA) was used to flush the lungs of blood via the right heart ventricle and the lungs were then harvested. […]

## NC(=O)C1=CN([C@@H]2O[C@H](COP(=O)(O)OP(=O)(O)OC[C@H]3O[C@@H](n4cnc5c(N)ncnc54)[C@H](O)[C@@H]3O)[C@@H](O)[C@H]2O)C=CC1 [β-NAD, beta-nicotinamide adenine dinucleotide]
[1]; 100 nM thrombin in mixture with 50 mM b-NAD
  thrombin-induced endothelial cell permeability (TER): significantly attenuated the thrombin-induced endothelial cell permeability
[1]; LPS (100 ng/ml) with β-NAD added
  decrease in TER from base line: ~30%
[1]; PLY in a mixture with 50 mM β-NAD
  PLY-induced loss of monolayer integrity (TER): failed to produce such drastic effect
[1]; b-NAD alone, quiescent HPAEC, 10-100 mM as printed
  TER of HPAEC monolayers (endothelial barrier function): positive effect; also recorded: significant initial increase in TER
[1]; cytochalasin B pretreatment 30 min, then 50 μM β-NAD
  β-NAD effect on TER after cytochalasin B: did not increase the TER
[1]; nocodazole pretreatment 30 min, then 50 μM β-NAD
  β-NAD effect on TER after nocodazole: restored endothelial cell barrier integrity
[2]
  LPS-induced BAL protein accumulation: significantly attenuated
